Source: patent US20230375576A1, “METHODS FOR THE TREATMENT OF FAMILIAL HETEROZYGOUS AND HOMOZYGOUS HYPERCHOLESTEROLEMIA WITH CYCLODEXTRINS” (Beren Therapeutics P.B.C., priority 2021, published 2023)
“Also recorded” adds a separate entry of the source.

Experiments:
[1] = Cholesterol crystal dissolution capacity in plasma of HoFH patients (D6-labeled cholesterol in filtrate, GC-MS); conditions: human plasma from HoFH patients; D6-labeled cholesterol crystals added; compared to control group; FIG. 1A
Method: D6-labeled cholesterol crystals were added to human plasma collected from homozygous familial hypercholesterolemia (HoFH) patients treated with HPBCD (2-hydroxypropyl-beta-cyclodextrin). The reaction mixtures were filtered to remove crystals and the filtrate was assayed for the presence of D6-labeled cholesterol using gas chromatography-mass spectroscopy (GC-MS). Cholesterol measured in the filtrate indicated the ability of HPBCD (2-hydroxypropyl-beta-cyclodextrin) to dissolve cholesterol crystals.

Ldlr−/− mice = experiment: Effect on liver weight in Ldlr−/− mouse model; type: in vivo; conditions: Ldlr−/− mice on Western diet; 2 g/kg subcutaneously after five weeks; livers weighed up to 4 weeks post-HPBCD; versus untreated mice; FIG. 3
Text: To evaluate the effect of HPBCD (2-hydroxypropyl-beta-cyclodextrin) on liver weight, experiments using Ldlr−/− mice were designed as described in FIGS. 2A and 2B. The mice were fed normal chow diet (NC) or high-fat (42%), high-cholesterol (1.2) diet Western diet (WD) as described in Table 1 and Table 2. After five weeks, the mice were subcutaneously injected with 2 g/kg […]. The livers were excised and weighed after five weeks (Group 1, 2, 6), six weeks (Group 3), seven weeks (Group 4), and nine weeks (Group 5), respectively. [table] [table]

ABCA1 = experiment: mRNA expression of ABCA1 in whole blood from HoFH patients; type: cell-based, human; conditions: 1.2 mM HPBCD, 6 hours, normalized to saline control, FIG. 1B
Method: This example aims to investigate the effects of HPBCD (2-hydroxypropyl-beta-cyclodextrin) on cholesterol efflux capacity in HoFH patients. HPBCD was added to whole blood obtained from HoFH patients at concentration of 1.2 mM. Untreated samples were used as control. The mixtures were incubated for 6 hours. Total mRNA was isolated and mRNA expression levels were measured. Data is shown as the level of gene expression normalized to saline control.

Q: For `CC(O)COC[C@H]1O[C@@H]2O[C@H]3[C@H](O)[C@@H](O)[C@@H](O[C@H]4[C@H](O)[C@@H](O)[C@@H](O[C@H]5[C@H](O)[C@@H](O)[C@@H](O[C@H]6[C@H](O)[C@@H](O)[C@@H](O[C@H]7[C@H](O)[C@@H](O)[C@@H](O[C@H]8[C@H](O)[C@@H](O)[C@@H](O[C@H]1[C@H](O)[C@H]2O)O[C@@H]8COCC(C)O)O[C@@H]7COCC(C)O)O[C@@H]6COCC(C)O)O[C@@H]5COCC(C)O)O[C@@H]4COCC(C)O)O[C@@H]3COCC(C)O` (stereo partly drawn) [HPBCD, 2-hydroxypropyl-beta-cyclodextrin], which cholesterol crystal dissolution [1] is on record?
A: Its cholesterol crystal dissolution is “significantly increased”.

Q: And the liver weight (Ldlr−/− mice)?
A: The liver weight was “inhibits increase of liver weight; also recorded: did not show any further increase in liver weight”.

Q: What about the “mRNA expression level of ABCA1” value (ABCA1) of the same compound?
A: The value was “significant induction”.
